In ChEMBL document CHEMBL1759866, “Discovery of 2,4-bis-arylamino-1,3-pyrimidines as insulin-like growth factor-1 receptor (IGF-1R) inhibitors” (Bioorg Med Chem Lett, 2011):

Columns and labels:
Rattus norvegicus = assay: In vivo clearance in Sprague-Dawley rat
in vivo [1] = conditions: CD1, mouse, tumor and plasma, po, 100 mg/kg
[2] = Cmax in tumor of CD1 mouse Calu6 tumor xenograft model at 100 mg/kg, po administered twice daily as suspension in 1% Tween 80 and 1% HPMC in water; type: ADME, organism-based, Neoplasm; design: dose 100 mg/kg, route oral
[3] = Half life in CD1 mouse Calu6 tumor xenograft model at 1 mg/kg, iv administered as solution in DMSO and 5 mg/kg, po administered as suspension in 20% captisol in PBS; type: ADME, organism-based; conditions: in vivo
[4] = Cmax in CD1 mouse Calu6 tumor xenograft model at 100 mg/kg, po administered twice daily as suspension in 1% Tween 80 and 1% HPMC in water; type: ADME, organism-based; design: dose 100 mg/kg, route oral; conditions: in vivo
[5] = Volume of distribution at steady state in CD1 mouse Calu6 tumor xenograft model at 1 mg/kg, iv administered as solution in DMSO and 5 mg/kg, po administered as suspension in 20% captisol in PBS; type: ADME, organism-based; conditions: in vivo, read-out: Vdss
[6] = Oral bioavailability in CD1 mouse Calu6 tumor xenograft model at 5 mg/kg administered as suspension in 20% captisol in PBS; type: ADME, organism-based; conditions: in vivo
[7] = Cmax in CD1 mouse Calu6 tumor xenograft model at 30 mg/kg, po administered twice daily as suspension in 1% Tween 80 and 1% HPMC in water; type: ADME, organism-based; design: dose 30 mg/kg, route oral; conditions: in vivo
[8] = Cmax in tumor of CD1 mouse Calu6 tumor xenograft model at 30 mg/kg, po administered twice daily as suspension in 1% Tween 80 and 1% HPMC in water; type: ADME, organism-based, Neoplasm; design: dose 30 mg/kg, route oral
[9] = Clearance in CD1 mouse Calu6 tumor xenograft model at 1 mg/kg, iv administered as solution in DMSO and 5 mg/kg, po administered as suspension in 20% captisol in PBS; type: ADME, organism-based; conditions: in vivo
[10] = Oral bioavailability in Sprague-Dawley rat at 5 mg/kg administered as suspension in 1% Tween 80 and 1% HPMC in water after 12 to 24 hrs by LC-MS analysis; type: ADME, organism-based; conditions: in vivo
[11] = Clearance in Sprague-Dawley rat at 1 mg/kg, iv administered as solution in DSMO and 5 mg/kg, po administered as suspension in 1% Tween 80 and 1% HPMC in water after 12 to 24 hrs by LC-MS analysis; type: ADME, organism-based; conditions: in vivo
in vivo [12] = conditions: CD1, mouse, tumor and plasma, po, 30 mg/kg
[13] = Half life in Sprague-Dawley rat at 1 mg/kg, iv administered as solution in DSMO and 5 mg/kg, po administered as suspension in 1% Tween 80 and 1% HPMC in water after 12 to 24 hrs by LC-MS analysis; type: ADME, organism-based; conditions: in vivo
[14] = AUC in tumor of CD1 mouse Calu6 tumor xenograft model at 30 mg/kg, po administered twice daily as suspension in 1% Tween 80 and 1% HPMC in water; type: ADME, organism-based, Neoplasm; design: dose 30 mg/kg, route oral
[15] = AUC in tumor of CD1 mouse Calu6 tumor xenograft model at 100 mg/kg, po administered twice daily as suspension in 1% Tween 80 and 1% HPMC in water; type: ADME, organism-based, Neoplasm; design: dose 100 mg/kg, route oral
[16] = Volume of distribution at steady state in Sprague-Dawley rat at 1 mg/kg, iv administered as solution in DSMO and 5 mg/kg, po administered as suspension in 1% Tween 80 and 1% HPMC in water after 12 to 24 hrs by LC-MS analysis; type: ADME, organism-based; conditions: in vivo, read-out: Vdss
[17] = Half life in Sprague-Dawley rat at 2 mg/kg, iv administered as solution in DSMO and 5 mg/kg, po administered as suspension in 1% Tween 80 and 1% HPMC in water after 12 to 24 hrs by LC-MS analysis; type: ADME, organism-based; conditions: in vivo
[18] = Volume of distribution at steady state in Sprague-Dawley rat at 2 mg/kg, iv administered as solution in DSMO and 5 mg/kg, po administered as suspension in 1% Tween 80 and 1% HPMC in water after 12 to 24 hrs by LC-MS analysis; type: ADME, organism-based; conditions: in vivo, read-out: Vdss
in vivo [19] = conditions: CD1, mouse, tumor and plasma, po, 30 mg/kg, pH 3.5
[20] = Cmax in CD1 mouse Calu6 tumor xenograft model at 30 mg/kg, po administered twice daily as suspension in 20% captisol in PBS of pH 3.5; type: ADME, organism-based; design: dose 30 mg/kg, route oral; conditions: in vivo
[21] = Cmax in CD1 mouse Calu6 tumor xenograft model at 100 mg/kg, po administered twice daily as suspension in 20% captisol in PBS of pH 3.5; type: ADME, organism-based; design: dose 100 mg/kg, route oral; conditions: in vivo
[22] = Clearance in CD1 mouse Calu6 tumor xenograft model at 12 mg/kg, iv administered as solution in aqueous propylene glycol and 30 mg/kg, po administered as suspension in 20% captisol in PBS of pH 5.73; type: ADME, organism-based; conditions: in vivo
[23] = Volume of distribution at steady state in CD1 mouse Calu6 tumor xenograft model at 12 mg/kg, iv administered as solution in aqueous propylene glycol and 30 mg/kg, po administered as suspension in 20% captisol in PBS of pH 5.73; type: ADME, organism-based; conditions: in vivo, read-out: Vdss
[24] = Cmax in tumor of CD1 mouse Calu6 tumor xenograft model at 30 mg/kg, po administered twice daily as suspension in 20% captisol in PBS of pH 3.5; type: ADME, organism-based, Neoplasm; design: dose 30 mg/kg, route oral
[25] = Cmax in tumor of CD1 mouse Calu6 tumor xenograft model at 100 mg/kg, po administered twice daily as suspension in 20% captisol in PBS of pH 3.5; type: ADME, organism-based, Neoplasm; design: dose 100 mg/kg, route oral
[26] = Half life in CD1 mouse Calu6 tumor xenograft model at 12 mg/kg, iv administered as solution in aqueous propylene glycol and 30 mg/kg, po administered as suspension in 20% captisol in PBS of pH 5.73; type: ADME, organism-based; conditions: in vivo
[27] = Clearance in Sprague-Dawley rat at 2 mg/kg, iv administered as solution in DSMO and 5 mg/kg, po administered as suspension in 1% Tween 80 and 1% HPMC in water after 12 to 24 hrs by LC-MS analysis; type: ADME, organism-based; conditions: in vivo
[28] = AUC in tumor of CD1 mouse Calu6 tumor xenograft model at 100 mg/kg, po administered twice daily as suspension in 20% captisol in PBS of pH 3.5; type: ADME, organism-based, Neoplasm; design: dose 100 mg/kg, route oral
in vivo [29] = conditions: CD1, mouse, tumor and plasma, po, 100 mg/kg, pH 3.5
[30] = AUC in tumor of CD1 mouse Calu6 tumor xenograft model at 30 mg/kg, po administered twice daily as suspension in 20% captisol in PBS of pH 3.5; type: ADME, organism-based, Neoplasm; design: dose 30 mg/kg, route oral

## COc1ccc(Nc2nccc(Nc3cnc4ccccc4c3)n2)cc1Cl
Rattus norvegicus
  CL: 48.3 mL/min/kg

## COc1cc(Nc2nccc(Nc3cnc4ccccc4c3)n2)cc(OC)c1
Rattus norvegicus
  CL: 48.3 mL/min/kg

## COc1cc(Nc2nccc(Nc3cnc4ccccc4c3)n2)ccc1N1CCOCC1
Rattus norvegicus
  CL: 48.3 mL/min/kg

## COc1cc(Nc2nccc(Nc3cnc4ccccc4c3)n2)ccc1OCCCN1CCCCC1
Rattus norvegicus
  CL: 31.7 mL/min/kg

## COc1cc(Nc2nccc(Nc3cnc4ccccc4c3)n2)cc(OC)c1OC
In vivo [1]
  Kp: 0.18
[2]
  Cmax: 2720 nM
[3]
  half-life: 1.7 h
[4]
  Cmax: 13400 nM
[5]
  Vd: 0.3 L/kg
[6]
  bioavailability: 63%
[7]
  Cmax: 5340 nM
[8]
  Cmax: 525 nM
[9]
  clearance: 26.7 mL/min/kg
[10]
  bioavailability: 33%
[11]
  clearance: 6.67 mL/min/kg
In vivo [12]
  Kp: 0.129
[13]
  half-life: 1.7 h
[14]
  AUC: 0.989 µg·h/mL
[15]
  AUC: 5.17 µg·h/mL
[16]
  Vd: 0.2 L/kg

## c1ccc2ncc(Nc3ccnc(Nc4ccc(OCCCN5CCCCC5)cc4)n3)cc2c1
[17]
  half-life: 12.1 h
[18]
  Vd: 9.5 L/kg
In vivo [19]
  Kp: 11.6
[20]
  Cmax: 180 nM
[21]
  Cmax: 2220 nM
[22]
  clearance: 98.3 mL/min/kg
[23]
  Vd: 28.1 L/kg
[24]
  Cmax: 1360 nM
[10]
  bioavailability: 9%
[25]
  Cmax: 143000 nM
[26]
  half-life: 5.3 h
[27]
  clearance: 10 mL/min/kg
[28]
  AUC: 1120 µg·h/mL
In vivo [29]
  Kp: 81.9
[30]
  AUC: 13.3 µg·h/mL

## COc1cc(Nc2nccc(Nc3ccc4ccccc4c3)n2)cc(OC)c1OC
Rattus norvegicus
  CL: 40 mL/min/kg

## COc1cc(Nc2nccc(Nc3ccc4ncccc4c3)n2)cc(OC)c1OC
[3]
  half-life: 2.3 h
[5]
  Vd: 1.8 L/kg
[6]
  bioavailability: 56%
[9]
  clearance: 107 mL/min/kg
[10]
  bioavailability: 16%
[11]
  clearance: 20 mL/min/kg
[13]
  half-life: 1.3 h
[16]
  Vd: 1.1 L/kg

## COc1cc(Nc2nccc(Nc3ccc4[nH]ncc4c3)n2)cc(OC)c1OC
Rattus norvegicus
  CL: 40 mL/min/kg

## COc1cc(Nc2nccc(Nc3cc4ccccc4cn3)n2)cc(OC)c1OC
Rattus norvegicus
  CL: 40 mL/min/kg
